Legend:
Assay type in all cases: cell-based
[1] = test system: MCF-7 cells (BAF155 and PABP1 biomarkers); assay: EC50 assay: western blot of BAF155 and PABP1 biomarkers in MCF-7 cells; conditions: Homo sapiens, MCF7, 48 h, two days treatment
Procedure: (§1) 1˜2×10e^5 MCF-7 cells or MDA-MB-231 cells per were seeded into 6-well plate. Two days later, cells were treated with inhibitors or control for additional two days. Then cells were collected by trypsinization, washed with Dulbecco's phosphate buffer saline and lysed by suspension in lysis buffer. The suspension was kept on ice for 30 min to achieve complete lysis or the suspension can be sonicated to achieve complete lysis. After centrifugation, supernatant were collected and total protein was quantified, and western blot samples were prepared with the SDS sample buffer Proteins were transferred to a nitrocellulose membrane for 1.5 hr at 350 mA at cold room. Membranes were blocked with 5% nonfat milk dissolved in PBST at room temperature for 1 hour and incubated overnight with primary antibody diluted in 5% nonfat milk dissolved in PBST at 4° C. Membranes were then washed with PBST for 10 min/each three times, and incubated with HRP-conjugated secondary antibody for 1 hour at room temperature, and washed with PBST for 10 min/each three times, and then detected by ECL reaction and X-ray film exposure. BAF155 and PABP1 were used as biomarkers to determine the EC50 values.

[2] = test system: HCC1954 breast cancer cells; assay: Transwell invasion assay
Procedure: In another example, a compound's effect on cancer cell migration and invasion were evaluated in a transwell invasion assay. In one such example, addition of compound 6 in a concentration of 5 μM and 10 μM caused an approximately 50% and an approximately 75% reduction, respectively, of invasion of HCC1954 breast cancer cells in the assay.

[3] = test system: MDA-MB-231 cells (BAF155 and PABP1 biomarkers); assay: EC50 assay: western blot of BAF155 and PABP1 biomarkers in MDA-MB-231 cells; conditions: Homo sapiens, 48 h, two days treatment
Procedure: as §1

Row | EC50 [1] [µM] | EC50 [3] [µM] | Structure (SMILES) | reduction of invasion of HCC1954 breast cancer cells ([2]; concentration of 5 μM) | reduction of invasion of HCC1954 breast cancer cells ([2]; concentration of 10 μM)
1 | < 10 | – | CC1=CC(=O)C(C(C)(C)CC(=O)N[C@@H](CC[C@H](CNCc2ccccc2)C[C@H]2O[C@@H](n3cnc4c(N)ncnc43)[C@@H](O)C2O)C(=O)O)=CC1=O (stereo partly shown) [Example 4] | – | –
2 | – | < 0.5 | COc1ccc(CCNC(=O)C(CC[C@H](CNCc2ccccc2)C[C@H]2O[C@@H](n3cnc4c(N)ncnc43)[C@@H](O)C2O)NC(=O)CC(C)(C)C2=C(C)C(=O)C(C)=C(C)C2=O)cc1 (stereo partly shown) [Example 6] | approximately 50% | approximately 75%
3 | 15 | – | COc1ccc(CCNC(=O)[C@@H](N)CC[C@H](CNCc2ccccc2)C[C@H]2O[C@@H](n3cnc4c(N)ncnc43)[C@@H](O)C2O)cc1 (stereo partly shown) [Example 1] | – | –
4 | 10 | – | CC(=O)Oc1cc(C)cc(C)c1C(C)(C)CC(=O)N[C@@H](CC[C@H](CNCc1ccccc1)C[C@H]1O[C@@H](n2cnc3c(N)ncnc32)[C@@H](O)C1O)C(=O)O (stereo partly shown) [Example 2] | – | –
5 | < 5 | – | COc1ccc(CCNC(=O)[C@H](CC[C@H](CNCc2ccccc2)C[C@H]2O[C@@H](n3cnc4c(N)ncnc43)[C@@H](O)C2O)NC(=O)CC(C)(C)c2c(C)cc(C)cc2OC(C)=O)cc1 (stereo partly shown) [Example 3] | – | –

Reference: patent US12043645B2, “Adenosine analogs as methyltransferase inhibitors for treating cancer” (MEMORIAL SLOAN KETTERING CANCER CENTER, priority 2017, dated 2024)
